Measured values as given in PubChem BioAssay (NCI).
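In this assay, cells in 96-well plates receive the compound at five concentrations for 48 hours. Endpoints are linearly interpolated between the surrounding concentrations. GI50: concentration for 50% inhibition of growth. Definition used: TGI = concentration required for complete inhibition of growth.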

Legend:
Assay in all cases: growth of human tumour cells (NCI), 48 h
CAKI-1 renal = tested on: CAKI-1 renal
EKVX NSCLC = tested on: EKVX NSCLC
HOP-92 NSCLC = tested on: HOP-92 NSCLC
IGROV1 ovarian = tested on: IGROV1 ovarian
M14 melanoma = tested on: M14 melanoma
MDA-MB-231 breast = tested on: MDA-MB-231 breast
NCI-H460 lung = tested on: NCI-H460 lung
OVCAR-3 ovarian = tested on: OVCAR-3 ovarian
U251 CNS = tested on: U251 CNS
UACC-62 melanoma = tested on: UACC-62 melanoma

SMILES	GI50 (CAKI-1 renal) [µM]	TGI (CAKI-1 renal) [µM]	GI50 (EKVX NSCLC) [µM]	TGI (EKVX NSCLC) [µM]	GI50 (HOP-92 NSCLC) [µM]	TGI (HOP-92 NSCLC) [µM]	GI50 (IGROV1 ovarian) [µM]	TGI (IGROV1 ovarian) [µM]	GI50 (M14 melanoma) [µM]	TGI (M14 melanoma) [µM]	GI50 (MDA-MB-231 breast) [µM]	TGI (MDA-MB-231 breast) [µM]	GI50 (NCI-H460 lung) [µM]	TGI (NCI-H460 lung) [µM]	GI50 (OVCAR-3 ovarian) [µM]	TGI (OVCAR-3 ovarian) [µM]	GI50 (U251 CNS) [µM]	TGI (U251 CNS) [µM]	GI50 (UACC-62 melanoma) [µM]	TGI (UACC-62 melanoma) [µM]
Nc1c(C(=O)Nc2ccccn2)sc2nc3c(cc12)CCCCCC3	1.56	9.33	4.1	23.3	1.86	11.4	1.95	13.9	0.295	3.05	2.5	15.2	1.12	6.62	0.626	2.47	0.97	9.07	0.376	10.3
CN1CC[C@]23c4c5ccc(O)c4OC2c2[nH]ncc2C[C@H]3[C@H]1C5 (stereo not given in full)		> 100		> 100		> 100		> 100		> 100		> 100		> 100		> 100		> 100		> 100
CCOC(=O)n1c2ccccc2c(=O)n1CCO		> 100		> 100				> 100		> 100		> 100		> 100		> 100		> 100		> 100
Cc1nn2c(-c3nc4cc(Cl)c(Cl)cc4[nH]3)c(-c3ccc(F)cc3)nc2s1	7.09	> 59.4					5.42	> 50.6	5.94	> 100	1.25	3.74	1.75	> 33.8	3.26	11.1	2.56	10.5	3.49	> 46.3
Cc1cc(-c2ccco2)cc(C)c1/C=C/c1cncc(-c2nn[nH]n2)c1	> 25	> 25	> 25	> 25	> 25	> 25	> 25	> 25	> 25	> 25	> 25	> 25	> 25	> 25	> 25	> 25	> 25	> 25	> 25	> 25
CCN(CC)C(=O)CCCCCn1c2ccccc2c2c3c(c4c5ccccc5[nH]c4c21)C(=O)N(O)C3=O			10.9	58.4	2.73	7.68	2.41	6.87	4.49	39.3	5.52	82.5	3.62	15.4			1.96	3.78	4.1	20.1
Oc1ccc(-c2[nH]c3ccccc3c2-c2nc3ccccc3o2)cc1	2.62	14.2	4.76	21.9	2.73	15.9	3.34	16.3	3.26	13.8	1.47	5.64	3.24	11.5	3.05	9.8	2.86	11.6	3.1	15
CC(C)c1cc(C(C)C)c(Cl)c(Cl)c1O (tested in a mixture with another compound)		47		53.7		27.9		81.1		> 100		46		> 100		60.1		> 100		44
CC(C)=CC(=O)CC(=O)C(=O)NCCNC(=O)C(=O)CC(=O)C=C(C)C		> 50		> 50		> 50		> 50		> 50				> 50		> 50		> 50		> 50
CCOC(=O)COc1cccc2occc(=O)c12		> 100		> 100		> 100		> 100		> 100				> 100		> 100		> 100		> 100
CCN(CCNc1ccc(C)c2sc3cc(Cl)ccc3c(=O)c12)CC(C)(C)O	1.51	4.9	3.41	21.6			2.68	19.1	1.95	4.01	2.31	11.5	2.33	5	18.6	62.9	4.51	18.5	1.67	3.37
Cc1ccc(-c2nc(C(Cl)Cl)nc3cc(C)nn23)cc1	1.59	5.42	2.19	6.45	1.95	7.64					2.34	> 100	0.515	3.01	1.47	3.42			3.12	> 100
O=C(Nc1nc2c(s1)CCc1c-2c(Br)n(Cc2ccccc2)c1Br)c1ccccc1	9.89	> 100			1.2	4.63	2.68	33.4	9.94	> 100	2.16	32.6	3.82	> 100	4.24	17.3	3.42	11.3	4.66	> 100
COC(=O)c1ccc2c(c1)C(=O)c1c-2n(CCCCl)c(=O)c2cc(OC)c(OC)cc12	> 100	> 100	> 100	> 100			> 100	> 100	> 100	> 100	> 100	> 100	> 100	> 100	> 100	> 100	> 100	> 100	> 100	> 100
Cc1n(Cc2ccc3ccccc3n2)cc[n+]1Cc1ccc2ccccc2c1			2.17	21	0.355	3.06	1.12	4.76	1.13	10.7	0.665	4.08	0.659	11.2	0.515	5.1	0.384	12.2	0.933	3.61
